Consider 1 compound from US20220354911A1, “TREATMENT OF TUMORS BY A COMBINATION OF AN ONCOLYTIC ADENOVIRUS, A CDK4/6 INHIBITOR AND A FURTHER THERAPEUTICALLY ACTIVE AGENT” (KLINIKUM RECHTS DER ISAR DER TECHNISCHEN UNIVERSITÄT MÜNCHEN, priority 2019, published 2022).

For test [1], the system named is E1A, E1B55k, DBP, E40rf6 and Hexon. The experiment in a line: Western blot of viral protein expression kinetics in UMUC-3 cells with JQ-1. Type of test: cell-based, Mastadenovirus, Type C, Serotype 5. As to conditions: UMUC-3, 10 MOI. Here is the method: 1×10^6 UMUC-3 cells were seeded in 10 cm plates in DMEM medium and 24 hours post seeding infected with 10 MOI XVir-N-31. 1 hour post infection, culturing media was either refilled by DMEM or DMEM spiked with 500 nM JQ-1. 12, 24, 36 and 48 h.p.i, lysates of total proteins were taken using an SDS-buffer. BCA Assay was applied to adjust equivalent protein concentrations. Then, protein samples were supplemented with Lämmli buffer and separated via SDS-PA gelelectrophoresis on 10% PA-Gels. Samples were blotted onto PVDF membranes using a BioRAD Wet Tank System. These membranes were blocked with TBS-Tween buffer containing 5% Skim milk powder for 1 hour at room temperature. Incubation with primary antibodies was conducted over night at 4° C. and with HRP-conjugated secondary antibodies for 1 hour at room temperature. Chemiluminescence was detected using ECL prime (Pierce) with the ChemiDoc Imaging System (BioRad). Figures were designed in Adobe® Illustrator and evaluation was performed with ImageLab.
On the technique in general: Immunoblotting shows a protein as a band on a membrane.

Test [2] concerns SK-N-MC cells. The experiment in a line: Potency assay (SRB), XVir-N-31, Abemaciclib and JQ-1. As to conditions: CDK 4/6 (Abemaciclib) resistant SK-N-MC cells, 200 nM Abemaciclib + 500 nM JQ-1, XVir-N-31, 5 days post infection. Type of test: cell-based. The method, then: 100,000 SK-N-MC cells/well were seeded in 12-well plates and grown in RPMI Medium containing 10% FCS at 5% CO2 at 37° C. Cells were treated with 200 nM Abemaciclib+500 nM JQ-1 24 hours before and again 1 hour post infection by adding appropriate amount to the medium. Infection of XVir-N-31 took place in 500 μl in RPMI Medium without serum. SRB-Staining took place 5 days post infection. Mock treated cells were set 100% cell survival.

The test system of test [3] is LN229 cells. The experiment in a line: Western blot of XVir-N-31 infected LN229 cells, LEE011 and JQ1. Type of test: cell-based. Here is the method: 2.5×10^5 LN229 cells were seeded in 10 cm plates in DMEM medium. The following day the cells were treated with 500 nM LEE011 and 200 nM JQ1 or a combination of both. At the next morning the cells were infected with XVir-N-31 at 20 MOI. One hour after infection DMEM Medium containing the inhibitors was added on the cells. After each time point (24, 48, 72 hours) the cells were put on ice, washed twice with ice-cold PBS and 300 μl of SDS Protein Lysis Buffer was added. The cells were transferred to reaction tubes and the DNA sheared with a syringe and a needle and the supernatant transferred for further use after centrifugation. The protein concentration was measured with a BCA assay and samples with 4× Lämmli:DTT 6:1 and a concertation of 20 μg were produced and transferred to a 10% SDS gel. The gel electrophoresis started at 90V and was increased to 150V after the ladder started to separate. The proteins on the gel were blotted to a membrane for 2 hours at 100V and blocked in 5% milk in TBS-T for 1 hour at RT. After washing in TBS-T, the first antibody was added according to the manufacturer's information over night at 4° C. The used antibodies were directed to GAPDH, E1A, DBP, E2F1, Rb, pRb for all time points, and caspase 3 and the full length and cleaved version of PARP additionally for the 72 hours samples. The next day, the washing was repeated and the secondary antibody added for 1 hour at RT. Following the washing, ECL was used to image the chemiluminescence by the ChemiDoc™ MP Imaging System.

[4] abbreviates: LN229, with XVir-N-31, 48 hours post infection.
[5] abbreviates: LN229, with XVir-N-31, 72 hours post infection.

Structures are written as SMILES.

For the compound `Cc1sc2c(c1C)C(c1ccc(Cl)cc1)=N[C@@H](CC(=O)OC(C)(C)C)c1nnc(C)n1-2` [JQ-1, thieno-triazolo-1-4-diazepine], the Hexon expression entry in test [1] (500 nM JQ-1) is listed as “expressed in high levels in early time-points”. Also, the “absolute viral protein expression and kinetic of XVir-N-31 viral proteins (E1A, E1B55k, DBP and E40rf6)” value in test [1] (500 nM JQ-1 concurrent, 12, 24, 36 and 48 h.p.i) is “highly accelerated”. Moreover, the “cell killing on addition of JQ-1” value in test [2] is recorded as “did not increase cell killing”. The “viral proteins E1A and DBP” value in test [3] (LN229, XVir-N-31 MOI 20, 500 nM LEE011 or/and 200 nM JQ-1, 24 hours post infection) is “increased”; in test [3] (LN229, XVir-N-31 MOI 20, 500 nM LEE011 or/and 200 nM JQ-1, 48 hours post infection) it was “increased”; in test [3] (LN229, XVir-N-31 MOI 20, 500 nM LEE011 or/and 200 nM JQ-1, 72 hours post infection), “increased”. Besides, the “cellular proteins Rb and pRb” value in test [3] (LN229, with XVir-N-31, 24 hours post infection) is listed as “remained inhibited”; in test [3] (setting [4]), “remained inhibited”. Further, in test [3] (setting [4]), the E2F-1 entry was “stabilized”. In addition, in test [3] (setting [5]), the E2F1 entry was “enhanced”. Also, the “cellular protein Rb” value in test [3] (setting [5]) is “decreased”. Also, the “presence of cleaved PARP” value in test [3] (XVir-N-31 infected LN229 cells, 72 hours post infection) is “increased”.
